{"source": "patent US20220402982A1", "about": "“POLYPEPTIDE FRAGMENT D (MP-D) AND USE THEREOF” (SHANGHAI LONGXIN BIOMEDICAL TECHNOLOGY CO., LTD., priority 2021, published 2022)", "molecules": {"B1": {"name": "THTVGSYFSVQNGYVGAFSQALGNSEYAMNSPLGSLDGRTTMYNLLGVKYLFAREDQLKKQ (peptide, listed as Lactobacillus plantarum)", "chain": "THTVGSYFSVQNGYVGAFSQALGNSEYAMNSPLGSLDGRTTMYNLLGVKYLFAREDQLKKQ", "notes": "positive control"}}, "key": {"[1]": {"tested_on": "DSS-induced IBD in mice", "experiment": "Colon length in DSS-induced acute IBD mouse model", "format": "in vivo, male C57BL6 mice", "settings": "50 μg/kg intragastrically, 7 days pre-administration, then daily together with 2.5 wt % DSS; x±SD; model group 5.3±0.6, blank control 9.4±0.6; in cm (unit assumed)", "protocol": "(§1) The administration of a DSS solution with a specified concentration to mice can induce an acute IBD model characterized by diarrhea, hematochezia, ulcer, and granulocyte infiltration. Mice were randomly grouped according to body weights of the mice. 40 healthy male C57BL6 mice were divided into four groups each with 10 mice:\n(§2) blank control group: the mice were each intragastrically administered with water every day at a volume of 0.4 mL/20 g;\n(§3) model group: the mice were each intragastrically administered with a DSS aqueous solution of a mass fraction of 2.5 wt % consecutively for 7 days, where the DSS aqueous solution was freshly prepared and changed every day; […]\nThe body weight changes of mice in each group were recorded every day to determine whether the acute IBD mouse model was successfully established.\n(§4) A mouse colon between an anus end to an ileocecal end was integrally collected, and a length of the colon was measured; and the colon was dissected along a longitudinal axis, feces therein was rinsed off, and then the colon was stored in 4% […] or frozen at −80° C. […]"}, "[2]": {"tested_on": "DSS-induced IBD in mice", "experiment": "Colonic histopathological evaluation (HE staining, scoring) in DSS-induced acute IBD mouse model", "format": "in vivo, male C57BL6 mice", "settings": "50 μg/kg intragastrically, 7 days pre-administration, then daily together with 2.5 wt % DSS; x±SD; model group 7.4±0.6, blank control 0.0±0.0", "protocol": "as §1, §2, §3, §4\nExperimental data in the above experimental method were expressed as (x±SD), the GraphPad Prism (ver. 8.0, GraphPad Software Inc., San Diego, Calif., USA) was used to plot a chart, the SPSS Program (ver. 25.0, SPSS Inc., Chicago, Ill., USA) was used for statistical test, and one-way ANOVA or independent two-sample t-test were used for significance test when the normality and homogeneity of variances were met. […]"}}, "data": [{"molecule": "THTVGSYFQVQNGYVGAFSRALGNNEYAMNS (THTVGSYFXVQNGYVGAFSXALGNXEYAMNS; Sequence is synthesized; (9)..(9) Xaa can be Tyr, Val, Gly, Ser, Gln, or absent; (20)..(20) Xaa can be Ser, Gln, Glu, Tyr, Arg, or absent; (25)..(25) Xaa can be Asn, Thr, Ser, Pro, Leu, or absent) [MP-D]", "values": [{"measurement": "colon length", "setting": "[1]", "value": "8.0±0.9"}, {"measurement": "colonic histopathologic score", "setting": "[2]", "value": "1.3±0.6"}]}, {"molecule": "B1", "values": [{"measurement": "colon length", "setting": "[1]", "value": "7.9±0.5"}, {"measurement": "colonic histopathologic score", "setting": "[2]", "value": "2.4±0.8"}]}]}
